From patent publication US6545009B1, “Retinoid-related receptor function regulating agent” (Takeda Chemical Industries, Ltd., priority 1998, dated 2003)

| SMILES | melting point [°C] |
| --- | --- |
| COC(=O)c1cccc(-c2nc(-c3cccc(C(F)(F)F)c3)cs2)c1 [Example 45, methyl 3-[4-(3-trifluoromethylphenyl)-2-thiazolyl]benzoate] | 105 to 106 |
| Cc1cc(-c2csc(-c3ccc(C(=O)O)cc3)n2)c(C)s1 [Example 93, 4-[4-(2,5-dimethyl-3-thienyl)-2-thiazolyl]benzoic acid] | 239 to 240 |
| O=C(O)c1cccc(-c2nc(-c3cccc(C(F)(F)F)c3)cs2)c1 [Example 68, 3-[4-(3-trifluoromethylphenyl)-2-thiazolyl]benzoic acid] | 229 to 230 |
| CCOC(=O)c1cccc(-c2nc(-c3ccc(C(C)C)cc3)cs2)c1 [Example 86, ethyl 3-[4-(4-isopropylphenyl)-2-thiazolyl]benzoate] | 91 to 92 |
| O=C(O)c1ccc(-c2nc(-c3ccc(Cl)s3)cs2)cc1 [Example 53, 4-[4-(5-chloro-2-thienyl)-2-thiazolyl]benzoic acid] | 283 to 284 |
| COC(=O)c1ccc(-c2nc(-c3c(F)c(F)c(F)c(F)c3F)cs2)cc1 [Example 42, methyl 4-[4-(2,3,4,5,6-pentafluorophenyl)-2-thiazolyl]benzoate] | 141 to 142 |
| O=C(O)c1ccc(-c2nc(-c3ccc(Cl)s3)co2)cc1 [Example 14, 4-[4-(5-chloro-2-thienyl)-2-oxazolyl]benzoic acid] | ≥ 300 |
| COC(=O)c1ccc(-c2nc(-c3ccc(OC(F)F)cc3)co2)cc1 [Example 18, methyl 4-[4-(4-difluoromethoxylphenyl)-2-oxazolyl]benzoate] | 160 to 161 |
| Br.CCOC(=O)c1ccc(-c2csc(-c3ccncc3)n2)cc1 [Example 105, ethyl 4-[2-(4-pyridyl)-4-thiazolyl)benzoate hydrobromide] | 247 to 248 |
| O=C(O)c1ccc(-c2coc(-c3cccc(C(F)(F)F)c3)n2)cc1 [Example 26, 4-[2-(3-trifluoromethylphenyl)-4-oxazolyl]benzoic acid] | 268 to 269 |
| CCOC(=O)c1cccc(-c2nc(-c3ccc(C(C)(C)C)cc3)cs2)c1 [Example 84, ethyl 3-[4-(4-t-butylphenyl)-2-thiazolyl]benzoate] | 96 to 97 |
| COC(=O)c1ccc(-c2nc(-c3ccc(Cl)cc3)co2)cc1 [Example 1, methyl 4-[4-(4-chlorophenyl)-2-oxazolyl]benzoate] | 183 to 184 |
| COC(=O)c1ccc(-c2nc(-c3ccc(OC)cc3)co2)cc1 [Example 3, methyl 4-[4-(4-methoxyphenyl)-2-oxazolyl]benzoate] | 200 to 202 |
| Cc1cc(-c2csc(-c3cccc(C(=O)O)c3)n2)c(C)s1 [Example 92, 3-[4-(2,5-dimethyl-3-thienyl)-2-thiazolyl]benzoic acid] | 155 to 156 |
| Cc1ccc(-c2csc(-c3ccc(C(=O)O)cc3)n2)cc1 [Example 56, 4-[4-(4-methylphenyl)-2-thiazolyl]benzoic acid] | 289 to 290 |
| CCOC(=O)c1ccc(-c2coc(-c3ccc(Cl)cc3)n2)cc1 [Example 6, ethyl 4-[2-(4-chlorophenyl)-4-oxazolyl)benzoate] | 153 to 154 |
| O=C(O)c1cccc(-c2nc(-c3ccc(F)c(F)c3)cs2)c1 [Example 71, 3-[4-(3,4-difluorophenyl)-2-thiazolyl]benzoic acid] | 255 to 256 |
| COC(=O)c1ccc(-c2nc(-c3ccc(Cl)cc3)cs2)cc1 [Example 29, methyl 4-[4-(4-chlorophenyl)-2-thiazolyl]benzoate] | 186 to 187 |
| O=C(O)c1ccc(-c2csc(-c3ccncc3)n2)cc1 [Example 59, 4-[2-(4-pyridyl)-4-thiazolyl]benzoic acid] | > 300 |

| SMILES | melting point [°C] |
| --- | --- |
| CCOC(=O)c1ccc(-c2coc(-c3cccc(C(F)(F)F)c3)n2)cc1 [Example 20, ethyl 4-[2-(3-trifluoromethylphenyl)-4-oxazolyl]benzoate] | 132 to 133 |
| COC(=O)c1ccc(-c2nc(-c3ccc(Cl)s3)co2)cc1 [Example 7, methyl 4-[4-(5-chloro-2-thienyl)-2-oxazolyl]benzoate] | 189 to 190 |
| COC(=O)c1ccc(-c2nc(-c3ccc(OC(F)F)cc3)cs2)cc1 [Example 28, methyl 4-[4-(4-difluoromethoxyphenyl)-2-thiazolyl]benzoate] | 146 to 148 |
| COC(=O)c1ccc(-c2nc(-c3ccc(C(C)C)cc3)cs2)cc1 [Example 87, methyl 4-[4-(4-isopropylphenyl)-2-thiazolyl]benzoate] | 134 to 135 |
| O=C(O)c1ccc(-c2coc(-c3ccc(C(F)(F)F)cc3)n2)cc1 [Example 25, 4-[2-(4-trifluoromethylphenyl)-4-oxazolyl]benzoic acid] | 294 to 295 |
| O=C(O)c1ccc(-c2nc(-c3ccccn3)cs2)cc1 [Example 61, 4-[4-(2-pyridyl)-2-thiazolyl]benzoic acid] | > 300 |
| Br.COC(=O)c1ccc(-c2nc(-c3ccccn3)cs2)cc1 [Example 38, methyl 4-[4-(2-pyridyl)-2-thiazolyl]benzoate hydrobromide] | 243 to 244 |
| O=C(O)c1ccc(-c2csc(-c3cccnc3)n2)cc1 [Example 54, 4-[2-(3-pyridyl)-4-thiazolyl]benzoic acid] | > 300 |
| O=C(O)c1ccc(-c2nc(-c3ccccc3C(F)(F)F)co2)cc1 [Example 15, 4-[4-(2-trifluoromethylphenyl)-2-oxazolyl]benzoic acid] | 264 to 265 |
| O=C(O)c1cccc(-c2nc(-c3ccc(F)cc3F)cs2)c1 [Example 69, 3-[4-(2,4-difluorophenyl)-2-thiazolyl]benzoic acid] | 255 to 256 |
| COC(=O)c1cccc(-c2nc(-c3ccc(C(F)(F)F)cc3)cs2)c1 [Example 44, methyl 3-[4-(4-trifluoromethylphenyl)-2-thiazolyl]benzoate] | 142 to 143 |
| O=C(O)c1ccc(-c2nc(-c3cc(Cl)sc3Cl)cs2)cc1 [Example 94, 4-[4-(2,5-dichloro-3-thienyl)-2-thiazolyl]benzoic acid] | 266 to 267 |
| COC(=O)c1ccc(-c2nc(-c3ccc(Cl)s3)cs2)cc1 [Example 30, methyl 4-[4-(5-chloro-2-thienyl)-2-thiazolyl]benzoate] | 171 to 172 |
| O=C(O)c1ccc(-c2nc(-c3cccc(C(F)(F)F)c3)co2)cc1 [Example 22, 4-[4-(3-trifluoromethylphenyl)-2-oxazolyl]benzoic acid] | 253 to 254 |
| Cc1cc(-c2csc(-c3ccc(C(=O)O)cc3)n2)c(C)o1 [Example 91, 4-[4-(2,5-dimethyl-3-furyl)-2-thiazolyl]benzoic acid] | 264 to 265 |
| CCOC(=O)c1cccc(-c2nc(-c3cc(C)oc3C)cs2)c1 [Example 49, ethyl 3-[4-(2,5-dimethyl-3-furyl)-2-thiazolyl]benzoate] | 100 to 101 |
| O=C(O)c1ccc(-c2coc(-c3ccccc3)n2)cc1 [Example 12, 4-(2-phenyl-4-oxazolyl]benzoic acid] | 271 to 273 |
| O=C(O)c1ccc(-c2nc(-c3ccccc3)co2)cc1 [Example 11, 4-(4-phenyl-2-oxazolyl]benzoic acid] | 275 to 276 |
